# Read-outs that look alike come from different tables or passages of the source.
# Assay: Storage stability of nasal sprays with preservatives
# Excerpt: As the preservative, for example, benzalkonium chloride, which is often employed in the field of nasal drops, may be used. […] In addition to the free acids as such, their partially or completely neutralized salts may also be added to the nasal sprays.
Compound,storage stability of the nasal spray,"storage stability of the nasal spray (preservative in nasal spray, compared to benzalkonium chloride)"
C/C=C/C=C/C(=O)O [sorbic acid],significant extension of the storage stability,–
O=C(O)c1ccccc1 [benzoic acid],–,significant extension of the storage stability
